Tests used:
[1] = test system: bacterial growth in kaolin slurry; experiment: Kaolin slurry preservation test: biocide-dosed 65% solids slurry plated on standard method agar, samples as treated; type: cell-based, bacteria
Method: (§1) In the comparative testing, dry kaolin was mixed with water to achieve a 65% solid slurry material. This material contained no biocide. The slurry was then split into 200 gram aliquots and dosed with different biocides at different concentration as shown in Tables 1-3. All samples were kept at 50° C. until the end of the testing, which was up to 28 days.
A number of different and known biocides were used in the study and they include glutaraldehyde (glute), 1,2 benzithiazolin-3-one (BIT), tetrahydro-3-5-methyl-2H-1,3,5-thiadizine-2-thione (thione), isothiazoline (ISO), bronopol (BNPD) or orthophenyl phenate (OPP). For shorthand purposes, the study refers to the tradename of the biocide, which is found in the above listing of the biocides. Metam sodium is designated as SMDC and MDTCMA is used without change
(§2) The protocol for the testing of each sample is as follows: • 1) dosed with a recorded level of biocide; • 2) mixed for 24 hours contact time and plated using standard method agar for bacterial growth; • 3) remixed daily for 1 hour and retested for bacterial growth at Day 3; • 4) remixed daily for 1 hour and retested for bacterial growth at Day 7; • 5) remixed daily for 1 hour and retested for bacterial growth at Day 14; • 6) on day 20, samples were split into two containers: one container was inoculated (or challenged) with ˜10^5 cfu/ml bacteria, the other was left “as treated”, the challenge material was obtained from a contaminated kaolin product and is assumed to be representative of the types of bacteria that are seen in the kaolin industry, and the two sets of samples were prepared for Day 21 testing; • 7) both sets were remixed daily for 1 hour and retested for bacterial growth at Day 21; and • 8) both sets remixed daily for 1 hour and retested for bacterial growth at Day 28.
Different contact times were used to see how quickly the bacterial population was effected by the biocide.

[2] = test system: bacteria from a contaminated kaolin product; experiment: Kaolin slurry preservation test, challenge: on day 20 samples inoculated with ~10^5 cfu/ml bacteria from a contaminated kaolin product; type: cell-based
Method: as §1, §2

CN.CNC(=S)S [MDTCMA, methylammonium monomethyldithiocarbamate]
Log Red, contact time 1 day ([1]; 500 ppm, Table 1): 0 | Log Red, contact time 3 day ([1]; 500 ppm, Table 1): 1 | Log Red, contact time 7 day ([1]; 500 ppm, Table 1): 3 | cfu/mL, contact time 1 day ([1]; 500 ppm, Table 1): 13,140,000 cfu/mL | cfu/mL, contact time 3 day ([1]; 500 ppm, Table 1): 1,880,000 cfu/mL | cfu/mL, contact time 7 day ([1]; 500 ppm, Table 1): 40,000 cfu/mL | performance against the BIT biocide when measuring log reduction ([1]; 500 ppm, Table 1): performed at least as well as the BIT biocide | Log Red, contact time 1 day ([1]; 500 ppm, Table 2): 0 | Log Red, contact time 3 day ([1]; 500 ppm, Table 2): 1 | Log Red, contact time 7 day ([1]; 500 ppm, Table 2): 4 | Log Red, contact time 14 day ([1]; 500 ppm, Table 2): 4 | Log Red, contact time 21 day ([1]; 500 ppm, Table 2): 5 | Log Red, contact time 28 day ([1]; 500 ppm, Table 2): 4 | cfu/mL, contact time 1 day ([1]; 500 ppm, Table 2): 18,840,000 cfu/mL | cfu/mL, contact time 3 day ([1]; 500 ppm, Table 2): 1,960,000 cfu/mL | cfu/mL, contact time 7 day ([1]; 500 ppm, Table 2): 5,600 cfu/mL | cfu/mL, contact time 14 day ([1]; 500 ppm, Table 2): 3,100 cfu/mL | cfu/mL, contact time 21 day ([1]; 500 ppm, Table 2): 1,800 cfu/mL | cfu/mL, contact time 28 day ([1]; 500 ppm, Table 2): 2,500 cfu/mL | Log Red, contact time 1 day ([1]; 1000 ppm, Table 1): 1 | Log Red, contact time 3 day ([1]; 1000 ppm, Table 1): 2 | Log Red, contact time 7 day ([1]; 1000 ppm, Table 1): 5 | cfu/mL, contact time 1 day ([1]; 1000 ppm, Table 1): 7,060,000 cfu/mL | cfu/mL, contact time 3 day ([1]; 1000 ppm, Table 1): 1,680,000 cfu/mL | cfu/mL, contact time 7 day ([1]; 1000 ppm, Table 1): 1,000 cfu/mL | performance against the BIT biocide when measuring log reduction ([1]; 1000 ppm, Table 1): far superior | Log Red, contact time 1 day ([1]; 1000 ppm, Table 2): 0 | Log Red, contact time 3 day ([1]; 1000 ppm, Table 2): 4 | Log Red, contact time 7 day ([1]; 1000 ppm, Table 2): 4 | Log Red, contact time 14 day ([1]; 1000 ppm, Table 2): 4 | Log Red, contact time 21 day ([1]; 1000 ppm, Table 2): 5 | Log Red, contact time 28 day ([1]; 1000 ppm, Table 2): 4 | cfu/mL, contact time 1 day ([1]; 1000 ppm, Table 2): 14,520,000 cfu/mL | cfu/mL, contact time 3 day ([1]; 1000 ppm, Table 2): 7,000 cfu/mL | cfu/mL, contact time 7 day ([1]; 1000 ppm, Table 2): 3,200 cfu/mL | cfu/mL, contact time 14 day ([1]; 1000 ppm, Table 2): 2,500 cfu/mL | cfu/mL, contact time 21 day ([1]; 1000 ppm, Table 2): 1,100 cfu/mL | cfu/mL, contact time 28 day ([1]; 1000 ppm, Table 2): 1,700 cfu/mL | Log Red, contact time 1 day ([1]; 1000 ppm, Table 3): 3 | Log Red, contact time 3 day ([1]; 1000 ppm, Table 3): 2 | Log Red, contact time 7 day ([1]; 1000 ppm, Table 3): 2 | Log Red, contact time 14 day ([1]; 1000 ppm, Table 3): 3 | Log Red, contact time 21 day ([1]; 1000 ppm, Table 3): 2 | Log Red, contact time 28 day ([1]; 1000 ppm, Table 3): 2 | cfu/mL, contact time 1 day ([1]; 1000 ppm, Table 3): 100 cfu/mL | cfu/mL, contact time 3 day ([1]; 1000 ppm, Table 3): 100 cfu/mL | cfu/mL, contact time 7 day ([1]; 1000 ppm, Table 3): 100 cfu/mL | cfu/mL, contact time 14 day ([1]; 1000 ppm, Table 3): 100 cfu/mL | cfu/mL, contact time 21 day ([1]; 1000 ppm, Table 3): 100 cfu/mL | cfu/mL, contact time 28 day ([1]; 1000 ppm, Table 3): 100 cfu/mL | Log Red, contact time 1 day ([1]; 1500 ppm, Table 3): 3 | Log Red, contact time 3 day ([1]; 1500 ppm, Table 3): 2 | Log Red, contact time 7 day ([1]; 1500 ppm, Table 3): 2 | Log Red, contact time 14 day ([1]; 1500 ppm, Table 3): 3 | Log Red, contact time 21 day ([1]; 1500 ppm, Table 3): 2 | Log Red, contact time 28 day ([1]; 1500 ppm, Table 3): 2 | cfu/mL, contact time 1 day ([1]; 1500 ppm, Table 3): 100 cfu/mL | cfu/mL, contact time 3 day ([1]; 1500 ppm, Table 3): 100 cfu/mL | cfu/mL, contact time 7 day ([1]; 1500 ppm, Table 3): 100 cfu/mL | cfu/mL, contact time 14 day ([1]; 1500 ppm, Table 3): 100 cfu/mL | cfu/mL, contact time 21 day ([1]; 1500 ppm, Table 3): 100 cfu/mL | cfu/mL, contact time 28 day ([1]; 1500 ppm, Table 3): 100 cfu/mL | biocide efficacy compared with known biocides ([1]; Table 2, up to 28 days): comparable biocide efficacy as compared to known biocides | biocide effectiveness compared with thione ([1]; Table 3, up to the 28 day testing, not challenge testing, 1000 and 1500 ppm): performed on a par with the thione | Log Red, 21 day Challenge ([2]; 500 ppm, Table 2): 3 | Log Red, 28 day Challenge ([2]; 500 ppm, Table 2): 3 | cfu/mL, 21 day Challenge ([2]; 500 ppm, Table 2): 73,000 cfu/mL | cfu/mL, 28 day Challenge ([2]; 500 ppm, Table 2): 65,000 cfu/mL | Log Red, 21 day Challenge ([2]; 1000 ppm, Table 2): 3 | Log Red, 28 day Challenge ([2]; 1000 ppm, Table 2): 3 | cfu/mL, 21 day Challenge ([2]; 1000 ppm, Table 2): 52,000 cfu/mL | cfu/mL, 28 day Challenge ([2]; 1000 ppm, Table 2): 32,000 cfu/mL | Log Red, 21 day Challenge ([2]; 1000 ppm, Table 3): 2 | Log Red, 28 day Challenge ([2]; 1000 ppm, Table 3): 1 | cfu/mL, 21 day Challenge ([2]; 1000 ppm, Table 3): 196,000 cfu/mL | cfu/mL, 28 day Challenge ([2]; 1000 ppm, Table 3): 3,680,000 cfu/mL | Log Red, 21 day Challenge ([2]; 1500 ppm, Table 3): 3 | Log Red, 28 day Challenge ([2]; 1500 ppm, Table 3): 1 | cfu/mL, 21 day Challenge ([2]; 1500 ppm, Table 3): 18,200 cfu/mL | cfu/mL, 28 day Challenge ([2]; 1500 ppm, Table 3): 2,300,000 cfu/mL | biocide effectiveness in challenge testing ([2]; Table 3, challenge testing): still performed adequately | biocide effectiveness after inoculation, overall result of the studies ([2]; after inoculation): effective biocide
